By IC50 is commonly meant the concentration that gives 50% inhibition. Lower therefore signals greater potency in that assay.

This assay deals with KRAS^G12C (Homo sapiens, UniProt P01116, C118A/G12C). The experiment in a line: Coupled Nucleotide Exchange Assay. It is filed as biochemical. The note with it: GDP-bound KRAS (aa 1-169) G12C/C118A; 2 h compound pre-incubation; SOS-mediated exchange, 30 min; cRAF binding (AlphaLISA). The protocol:
The KRAS^G12C coupled nucleotide exchange assay allows for the screening and profiling of KRAS^G12C antagonists/inhibitors by monitoring the binding of an effector protein (e.g., a Ras binding domain of Raf1, RBD-cRaf) to KRAS^G12C. Purified GDP-bound KRAS protein (aa 1-169), containing both G12C and C118A amino acid substitutions and an N-terminal His-tag, was pre-incubated in assay buffer (25 mM HEPES pH 7.4, 10 mM MgCl2, 0.01% Triton X-100, either with or without 0.1% BSA) with serially diluted compound for 2 h. For all subsequent steps, BSA was omitted and DTT was added to the reaction buffer at a final concentration of 1 mM. Following compound pre-incubation, purified SOS protein (aa 564-1049) and GTP (Roche 10106399001) were added to the assay wells and incubated for an additional 30 min. To determine the extent of inhibition of SOS-mediated nucleotide exchange, purified GST-tagged cRAF (aa 1-149), nickel chelate AlphaLISA acceptor beads (PerkinElmer AL108R), and AlphaScreen glutathione donor beads (PerkinElmer 6765302) were added to the assay wells and incubated for 5-30 min. The assay plates were then read on a plate reader measuring luminescence signal. Signal intensity of compound-containing wells were normalized to DMSO control, and data were analyzed using a 4-parameter logistic model to calculate IC50 values.
Background: Bead proximity is the source of the signal in Alpha formats.

Molecules are shown by their SMILES. Where only a bound is given, the exact number is not on record here.

Sequence of KRAS^G12C (P01116 1-169 isoform P01116-2 G12C/C118A): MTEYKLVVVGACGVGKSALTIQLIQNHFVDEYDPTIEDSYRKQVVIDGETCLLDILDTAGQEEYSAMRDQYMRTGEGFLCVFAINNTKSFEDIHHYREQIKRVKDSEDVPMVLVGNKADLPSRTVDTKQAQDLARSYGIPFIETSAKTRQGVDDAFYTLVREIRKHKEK

In turn, `C=CC(=O)N1CCN(C2CN(c3cc(N4CCC5(CC4)CC(C)(O)CO5)nc(C(F)(F)F)c3C#N)C2)CC1` (stereo not shown) [Compound 3-029, 4-(3-(4-acryloylpiperazin-1-yl)azetidin-1-yl)-6-(3-hydroxy-3-methyl-1-oxa-8-azaspiro[4.5]decan-8-yl)-2-(trifluoromethyl)nicotinonitrile] displayed an IC50 of 8.68 µM.
Consider `C=CC(=O)N1CCN([C@@H]2CN(c3cc(N4CCC5(CC4)C(F)(F)C54CC4)nc(C(F)(F)F)n3)[C@@H]2C)CC1` [Compound 3-022, 1-(4-((2R,3R)-1-(6-(10.10-difluoro-7-azadispiro[2.0.5^4.1^3]decan-7-yl)-2-(trifluoromethyl)pyrimidin-4-yl)-2-methylazetidin-3-yl)piperazin-1-yl)prop-2-en-1-one], for which the IC50 was found to be 5.61 µM.
`C=CC(=O)N1CCN(C2CN(c3cc(N4CCC5(CC4)CC5)nc(C(F)(F)F)c3C#N)C2)CC1` [Compound 3-038, 4-(3-(4-acryloylpiperazin-1-yl)azetidin-1-yl)-6-(6-azaspiro[2.5]octan-6-yl)-2-(trifluoromethyl)nicotinonitrile] registered an IC50 of 5.7 µM.
The compound `C=CC(=O)N1CCN([C@@H]2CN(c3cc(N4CCC5(CC4)C(C)=CCN5C)nc(C(F)(F)F)n3)[C@@H]2C)CC1` [Compound 3-055, 1-(4-((2R,3R)-1-(6-(1,4-Dimethyl-1,8-diazaspiro[4.5]dec-3-en-8-yl)-2-(trifluoromethyl)pyrimidin-4-yl)-2-methylazetidin-3-yl)piperazin-1-yl)prop-2-en1-one] registered an IC50 of 1.32 µM.
In turn, `C=CC(=O)N1CCN([C@@H]2CN(c3cc(N4CCC5(CC4)CC5CN4CCCC4)nc(C(F)(F)F)n3)[C@@H]2C)CC1` (stereo partly drawn) [Compound 3-023, 1-(4-((2R,3R)-2-methyl-1-(6-(1-(pyrrolidin-1-ylmethyl)-6-azaspiro[2.5]octan-6-yl)-2-(trifluoromethyl)pyrimidin-4-yl)azetidin-3-yl)piperazin-1-yl)prop-2-en-1-one] displayed an IC50 of 7.27 µM.
`C=CC(=O)N1CCN(C2CN(c3cc(N4CCC5(CC4)CN(CC)C(=O)O5)nc(C(F)(F)F)c3C#N)C2)CC1` [Compound 3-033, 4-(3-(4-acryloylpiperazin-1-yl)azetidin-1-yl)-6-(3-ethyl-2-oxo-1-oxa-3,8-diazaspiro[4.5]decan-8-yl)-2-(trifluoromethyl)nicotinonitrile] had an IC50 of 6.19 µM.
`C=CC(=O)N1CCN(C2CN(c3cc(N4CCC5(CCCCO5)CC4)nc(C(F)(F)F)c3C#N)C2)CC1` [Compound 3-035, 4-(3-(4-acryloylpiperazin-1-yl)azetidin-1-yl)-6-(1-oxa-9-azaspiro[5.5]undecan-9-yl)-2-(trifluoromethyl)nicotinonitrile]: the IC50 stood at 3.58 µM.
For `C=CC(=O)N1CCN([C@@H]2CN(c3cc(N4CCC5(C=CCO5)CC4)nc(C(F)(F)F)n3)[C@@H]2C)CC1` [Compound 3-011, 1-(4-((2R,3R)-1-(6-(1-oxa-8-aza-spiro[4.5]dec-3-en-8-yl)-2-(tri-fluoromethyl)pyrimidin-4-yl)-2-methylazetidin-3-yl)piperazin-1-yl)prop-2-en-1-one], the half-inhibitory concentration (IC50) was 0.964 µM.
Under `C=CC(=O)N1CCN(C2CN(c3cc(N4CCC5(CC4)c4ccccc4C(=O)N5C)nc(C(F)(F)F)n3)C2)CC1` [Compound 3-013] stands 5.64 µM; under `C=CC(=O)N1CCN(C2CN(c3cc(N4C5CCC4CC4(CCCO4)C5)nc(C(F)(F)F)n3)C2)CC1` (stereo not shown) [Compound 3-025, 1-(4-(1-(6-(dihydro-3′H-8-azaspiro[bicyclo[3.2.1]octane-3,2′-furan]-8-yl)-2-(trifluoromethyl)pyrimidin-4-yl)azetidin-3-yl)piperazin-1-yl)prop-2-en-1-one], 3.72 µM; under `C=CC(=O)N1CCN([C@@H]2CN(c3cc(N4CCC5(CC4)OCc4nccc(C)c45)nc(C(F)F)n3)[C@@H]2C)CC1` [Compound 3-080], 0.353 µM.
`C=CC(=O)N1CCN([C@@H]2CN(c3cc(N4CCC5(CC4)OCCC=C5C)nc(C(F)F)n3)[C@@H]2C)CC1` [Compound 3-009, 1-(4-((2R,3R)-1-(2-(difluorometh-yl)-6-(5-methyl-1-oxa-9-azaspiro [5.5]undec-4-en-9-yl)-pyrimidin-4-yl)-2-methylazetidin-3-yl)piper-azin-1-yl)prop-2-en-1-one] registered an IC50 of 0.884 µM.
The compound `C=CC(=O)N1CCN([C@@H]2CN(c3cc(N4CCC5(CCC(=O)N5C)CC4)nc(C(F)(F)F)n3)[C@@H]2C)CC1` [Compound 3-020, 8-(6-((2R,3R)-3-(4-Acryloylpiperazin-1-yl)-2-methylazetidin-1-yl)-2-(trifluoromethyl)pyrimidin-4-yl)-1-methyl-1,8-diazaspiro[4.5]decan-2-one] registered a 50% inhibitory concentration (IC50) of 1.6 µM.
In turn, `C=CC(=O)N1CCN(C2CN(c3cc(N4CCC5(CC4)COCCO5)nc(C(F)(F)F)c3C#N)C2)CC1` [Compound 3-024, 4-(3-(4-acryloylpiperazin-1-yl)azetidin-1-yl)-6-(1,4-dioxa-9-azaspiro[5.5]undecan-9-yl)-2-(trifluoromethyl)nicotinonitrile] registered an IC50 of 6.1 µM.
Turning to `C=CC(=O)N1CCN(C2CN(c3cc(N4CCC5(CC4)OCCC5=O)nc(C(F)(F)F)c3C#N)C2)CC1` [Compound 3-031, 4-(3-(4-acryloylpiperazin-1-yl)azetidin-1-yl)-6-(4-oxo-1-oxa-8-azaspiro[4.5]decan-8-yl)-2-(trifluoromethyl)nicotinonitrile], the IC50 worked out at 9.25 µM.
Then `C=CC(=O)N1CCN([C@@H]2CN(c3cc(N4CCC5(C=CCOC5)CC4)nc(C(F)(F)F)n3)[C@@H]2C)CC1` [Compound 3-021, 1-(4-((2R,3R)-1-(6-(2-Oxa-9-azaspiro[5.5]undec-4-en-9-yl)-2-(trifluoromethyl)pyrimidin-4-yl)-2-methylazetidin-3-yl)piperazin-1-yl) prop-2-en-1-one], with 3.86 µM.
`C=CC(=O)N1CCN(C2CN(c3cc(N4CCC5(C=CCOC5)CC4)nc(C(F)F)c3C)C2)CC1` [Compound 3-072, 1-(4-(1-(2-(difluoromethyl)-3-methyl-6-(2-oxa-9-azaspiro[5.5]undec-4-en-9-yl)pyridin-4-yl)azetidin-3-yl)piperazin-1-yl)prop-2-en-1-one] showed an IC50 of 4.9 µM.
As for `C=CC(=O)N1CCN(C2CN(c3cc(N4CCC5(CCCO5)[C@H](CO)C4)nc(C(F)(F)F)c3C#N)C2)CC1` (single isomer, unassigned) [Compound 3-062-1], the IC50 came out at 4.66 µM.
Take `C=CC(=O)N1CCN(C2CN(c3cc(N4CCC5(CC4)OC(=O)NC54CCC4)nc(C(F)(F)F)c3C#N)C2)CC1` [Compound 3-034, 4-(3-(4-acryloylpiperazin-1-yl)azetidin-1-yl)-6-(12-oxo-11-oxa-8,13-diazadispiro[3.0.55.34]tridecan-8-yl)-2-(trifluoromethyl)nicotinonitrile]: the IC50 came out at 2.45 µM.
`C=CC(=O)N1CCN([C@@H]2CN(c3cc(N4CCC5(C=CCO5)CC4)nc(C(F)(F)F)c3C#N)[C@@H]2C)CC1` [Compound 3-010, 4-((2R,3R)-3-(4-acryloylpiperazin-1-yl)-2-methylazetidin-1-yl)-6-(1-oxa-8-azaspiro[4.5]dec-3-en-8-yl)-2-(trifluoromethyl)nicotinonitrile] had an IC50 of 0.66 µM.
On to `C=CC(=O)N1CCN(C2CN(c3cc(N4CCC5(CC4)OCc4cc(Cl)ccc45)nc(C(F)(F)F)c3C#N)C2)CC1` [Compound 3-041, 4-(3-(4-acryloylpiperazin-1-yl)azetidin-1-yl)-6-(5-chloro-3H-spiro[isobenzofuran-1,4′-piperidin]-1′-yl)-2-(trifluoromethyl)nicotinonitrile], for which the IC50 was > 6.25 µM.
Compound `C=CC(=O)N1CCN([C@@H]2CN(c3cc(N4C5CCC4CC4(CCCO4)C5)nc(C(F)(F)F)n3)[C@@H]2C)CC1` (stereo partly drawn) [Compound 3-026, 1-(4-((2R,3R)-1-(6-(dihydro-3′H-8-azaspiro[bicyclo[3.2.1]octane-3,2′-furan]-8-yl)-2-(trifluoromethyl)pyrimidin-4-yl)-2-methylazetidin-3-yl)piperazin-1-yl)prop-2-en-1-one] registered an IC50 of 1.95 µM.
For `C=CC(=O)N1CCN(C2CN(c3cc(N4CCC5(CC4)CCN(C4COC4)C5)nc(C(F)(F)F)c3C#N)C2)CC1` [Compound 3-048, 4-(3-(4-acryloylpiperazin-1-yl)azetidin-1-yl)-6-(2-(oxetan-3-yl)-2,8-diazaspiro[4.5]decan-8-yl)-2-(trifluoromethyl)nicotinonitrile], the IC50 came out at 2.29 µM.
For the compound `C=CC(=O)N1CCN([C@@H]2CN(c3cc(N4CCC5(CC4)COc4nccc(C)c45)nc(C(F)(F)F)n3)[C@@H]2C)CC1` [Compound 3-092, 1-(4-((2R,3R)-2-methyl-1-(6-(4-methyl-1′H-spiro[furo[2,3-b]pyridine-3,4′-piperidin]-1′-yl)-2-(trifluoromethyl)-4-pyrimidinyl)-3-azetidinyl)-1-piperazinyl)-2-propen-1-one], the half-maximal inhibitory concentration (IC50) came to 2.4 µM.
The compound `C=CC(=O)N1CCN([C@@H]2CN(c3cc(N4CCC5(C=CCC5)CC4)nc(C(F)(F)F)n3)[C@@H]2C)CC1` [Compound 3-073, 1-(4-((2R,3R)-1-(6-(8-Azaspiro[4.5]dec-1-en-8-yl)-2-(trifluoromethyl)pyrimidin-4-yl)-2-methylazetidin-3-yl)piperazin-1-yl) prop-2-en-1-one] had an IC50 of 4.3 µM.

These data come from patent US20260327243A1, “SPIRO-HETEROCYCLIC INHIBITORS OF KRAS G12C MUTANT PROTEINS AND USES THEREOF” (AMGEN INC., priority 2023, published 2026).
